Reference: patent US20250161299A1, “ORAL PCLX-001 IN THE TREATMENT OF HUMAN CANCER” (PACYLEX PHARMACEUTICALS INC., priority 2022, published 2025)
Like-named read-outs stand apart in the source and are kept apart here.

Test: Phase I trial of oral PCLX-001: plasma pharmacokinetics, noncompartmental analysis (Phoenix WinNonlin 8.3)
Assay type: in vivo, human
Conditions: human, plasma
Text: The clinical trial is entitled “Phase I Trial of PCLX-001 in B-cell Non-Hodgkin Lymphoma and Advanced Solid Malignancies” and registered at clinicaltrials.gov as NCT04836195. It is a phase I dose-escalation study of oral PCLX-001, conducted in a multicenter, non-randomized, open-label, non-controlled design. The study is comprised of two parts: Part A (single-agent dose escalation) and Part B (single-agent expansion cohorts).
Patients are to receive daily oral PCLX-001 on 28-day cycles, beginning with a starting dose of 20 mg.
[…] After dosing, the blood samples (volumes 3 mL) were serially collected into heparinized tubes from a right forearm butterfly cannula. All blood fluid specimens were frozen and later assayed using a validated UHPLC-MS detection method.
Noncompartmental pharmacokinetic analysis was performed using Phoenix WinNonlin 8.3 using trapezoidal rule and linear up log down methodology. WinNonlin was allowed to pick optimal terminal phases.
Nonparametric superposition was performed using Phoenix WinNonlin Nonparametric Superposition to predict steady state data based upon Day 1 data for each patient. It utilized the 8- and 24-hour time points for estimation of terminal phase for the purposes of this exercise. We simulated 20 mg daily oral dosing and simulations were conducted out to steady state. Results are show in FIGS. 5, 6, and 7.
In the non-compartmental analysis, Phoenix WinNonlin 8.3 trapezoidal rule was used, with linear up log down method. This allowed WinNonlin to pick optimal terminal phase (WinNonlin will accept Rsq adjusted to >0.7). Additional analysis to assess adequate fie included visual inspection of data, and AUCextrap should be <15%.
Phoenix WinNonlin 8.3 trapezoidal rule. Used linear up log down method. Allowed WinNonlin to pick optimal terminal phase (WinNonlin will accept Rsq adjusted >0.7).
Other analysis to assess adequate fit. Visual inspection of data. AUCextrap should be <15%.

[1] = oral, 140 mg, Table 4, not on Pantoprazole, 140 mg, N 1, Day 1
[2] = oral, 140 mg, Table 5, Mean (CV), on Pantoprazole, 140 mg, N 2, Day 1
[3] = oral, 140 mg, Table 5, Mean (CV), on Pantoprazole, 140 mg, N 2, Day 15
[4] = po, 20 mg, Table 1A, Patient 115-002-001 (Patient 1), Day 1, 20 mg oral daily
[5] = po, 20 mg, Table 1A, Patient 115-002-001 (Patient 1), Day 15, 20 mg oral daily
[6] = po, 20 mg, Table 1A, Patient 115-002-002 (Patient 2), Day 15, 20 mg oral daily
[7] = po, 20 mg, Table 1A, Patient 115-002-004 (Patient 3), Day 1, 20 mg oral daily
[8] = po, 20 mg, Table 1A, Patient 115-002-004 (Patient 3), Day 15, 20 mg oral daily

Cc1c(NS(=O)(=O)c2c(Cl)cc(-c3ccnc(N4CCNCC4)c3)cc2Cl)c(CC(C)C)nn1C [PCLX-001, 2,6-dichloro-N-(3-isobutyl-1,5-dimethyl-1H-pyrazol-4-yl)-4-(2-(piperazin-1-yl)pyridin-4-yl)benzene sulfonamide]
Cmax (oral, 70 mg, Table 4, not on Pantoprazole, 70 mg, N 1, Day 15): 629 ng/mL
AUC(0-t) (oral, 70 mg, Table 4, not on Pantoprazole, 70 mg, N 1, Day 15, read-out: AUClast): 7300 ng·h/mL
Tmax (oral, 70 mg, Table 4, not on Pantoprazole, 70 mg, N 1, Day 15, read-out: Tmax): 4 h
Cmax (oral, 70 mg, Table 5, Mean (CV), on Pantoprazole, 70 mg, N 2, Day 1): 283 ng/mL
AUC(0-t) (oral, 70 mg, Table 5, Mean (CV), on Pantoprazole, 70 mg, N 2, Day 1, read-out: AUClast): 3260 ng·h/mL
Cmax (oral, 70 mg, Table 5, Mean (CV), on Pantoprazole, 70 mg, N 2, Day 15): 386 ng/mL
AUC(0-t) (oral, 70 mg, Table 5, Mean (CV), on Pantoprazole, 70 mg, N 2, Day 15, read-out: AUClast): 5760 ng·h/mL
Tmax (oral, 70 mg, Table 5, median (min, max), on Pantoprazole, 70 mg, N 2, Day 1, read-out: Tmax): 6 h
Tmax (oral, 70 mg, Table 5, median (min, max), on Pantoprazole, 70 mg, N 2, Day 15, read-out: Tmax): 6 h
Cmax (oral, 100 mg, Table 4, Mean (CV), not on Pantoprazole, 100 mg, N 2, Day 15): 1340 ng/mL
Cmax (oral, 100 mg, Table 4, Mean (CV), not on Pantoprazole, 100 mg, N 4, Day 1): 1770 ng/mL
AUC(0-t) (oral, 100 mg, Table 4, Mean, not on Pantoprazole, 100 mg, N 2, Day 15, read-out: AUClast): 17400 ng·h/mL
AUC(0-inf) (oral, 100 mg, Table 4, Mean, not on Pantoprazole, 100 mg, N 4, Day 1): 18000 ng·h/mL
AUC(0-t) (oral, 100 mg, Table 4, Mean, not on Pantoprazole, 100 mg, N 4, Day 1, read-out: AUClast): 15100 ng·h/mL
half-life (oral, 100 mg, Table 4, Mean, not on Pantoprazole, 100 mg, N 4, Day 1, read-out: t½ (converted)): 7.26 h
Tmax (oral, 100 mg, Table 4, median (min, max), not on Pantoprazole, 100 mg, N 2, Day 15, read-out: Tmax): 3 h
Tmax (oral, 100 mg, Table 4, median (min, max), not on Pantoprazole, 100 mg, N 4, Day 1, read-out: Tmax): 2 h
AUC(0-inf) (oral, 100 mg, Table 4, not on Pantoprazole, 100 mg, N 2, Day 15, value from N = 1 patient): 19400 ng·h/mL
half-life (oral, 100 mg, Table 4, not on Pantoprazole, 100 mg, N 2, Day 15, value from N = 1 patient, read-out: t½ (converted)): 7.56 h
Cmax (oral, 140 mg, Table 4, Mean (CV), not on Pantoprazole, 140 mg, N 1, Day 15): 903 ng/mL
AUC(0-inf) (oral, 140 mg, Table 4, Mean, not on Pantoprazole, 140 mg, N 1, Day 15): 10700 ng·h/mL
AUC(0-t) (oral, 140 mg, Table 4, Mean, not on Pantoprazole, 140 mg, N 1, Day 15, read-out: AUClast): 7680 ng·h/mL
Tmax (oral, 140 mg, Table 4, median (min, max), not on Pantoprazole, 140 mg, N 1, Day 15, read-out: Tmax): 1.5 h
AUC(0-inf) [1]: 24200 ng·h/mL
Cmax [1]: 2710 ng/mL
AUC(0-t) (oral, 140 mg, Table 4, not on Pantoprazole, 140 mg, N 1, Day 1, read-out: AUClast): 21200 ng·h/mL
Tmax (oral, 140 mg, Table 4, not on Pantoprazole, 140 mg, N 1, Day 1, read-out: Tmax): 0.5 h
half-life (oral, 140 mg, Table 4, not on Pantoprazole, 140 mg, N 1, Day 1, read-out: t½ (converted)): 7.91 h
half-life (oral, 140 mg, Table 4, not on Pantoprazole, 140 mg, N 1, Day 15, read-out: t½ (converted)): 13.8 h
AUC(0-inf) [2]: 7830 ng·h/mL
Cmax [2]: 1300 ng/mL
AUC(0-t) (oral, 140 mg, Table 5, Mean (CV), on Pantoprazole, 140 mg, N 2, Day 1, read-out: AUClast): 7260 ng·h/mL
AUC(0-inf) [3]: 10700 ng·h/mL
Cmax [3]: 903 ng/mL
AUC(0-t) (oral, 140 mg, Table 5, Mean (CV), on Pantoprazole, 140 mg, N 2, Day 15, read-out: AUClast): 7680 ng·h/mL
half-life (oral, 140 mg, Table 5, Mean, on Pantoprazole, 140 mg, N 2, Day 1, read-out: t½ (converted)): 6.71 h
half-life (oral, 140 mg, Table 5, Mean, on Pantoprazole, 140 mg, N 2, Day 15, read-out: t½ (converted)): 13.8 h
Tmax (oral, 140 mg, Table 5, median (min, max), on Pantoprazole, 140 mg, N 2, Day 1, read-out: Tmax): 1 h
Tmax (oral, 140 mg, Table 5, median (min, max), on Pantoprazole, 140 mg, N 2, Day 15, read-out: Tmax): 1.5 h
Tmax (oral, Example 2, all dose groups, Days 1 and 15, read-out: Tmax, median (range)): 2 h
half-life (oral, Example 2, range across the dose groups (20 to 140 mg), read-out: t1/2): 5.02 to 17.4 h
AUC(0-inf) [4]: 2030 ng·h/mL
Cmax [4]: 353 ng/mL
AUC(0-t) (po, 20 mg, Table 1A, Patient 115-002-001 (Patient 1), Day 1, 20 mg oral daily, read-out: AUClast or AUCtau): 1710 ng·h/mL
half-life (po, 20 mg, Table 1A, Patient 115-002-001 (Patient 1), Day 1, 20 mg oral daily, read-out: Half-life (converted)): 8.54 h
Tmax (po, 20 mg, Table 1A, Patient 115-002-001 (Patient 1), Day 1, 20 mg oral daily, read-out: Tmax): 1 h
AUC(0-inf) [5]: 3500 ng·h/mL
Cmax [5]: 479 ng/mL
AUC(0-t) (po, 20 mg, Table 1A, Patient 115-002-001 (Patient 1), Day 15, 20 mg oral daily, read-out: AUClast or AUCtau): 2730 ng·h/mL
half-life (po, 20 mg, Table 1A, Patient 115-002-001 (Patient 1), Day 15, 20 mg oral daily, read-out: Half-life (converted)): 10.3 h
Tmax (po, 20 mg, Table 1A, Patient 115-002-001 (Patient 1), Day 15, 20 mg oral daily, read-out: Tmax): 1 h
Cmax (po, 20 mg, Table 1A, Patient 115-002-002 (Patient 2), Day 1, 20 mg oral daily): 127 ng/mL
AUC(0-t) (po, 20 mg, Table 1A, Patient 115-002-002 (Patient 2), Day 1, 20 mg oral daily, read-out: AUClast or AUCtau): 1300 ng·h/mL
Tmax (po, 20 mg, Table 1A, Patient 115-002-002 (Patient 2), Day 1, 20 mg oral daily, read-out: Tmax): 4 h
AUC(0-inf) [6]: 2520 ng·h/mL
Cmax [6]: 215 ng/mL
AUC(0-t) (po, 20 mg, Table 1A, Patient 115-002-002 (Patient 2), Day 15, 20 mg oral daily, read-out: AUClast or AUCtau): 2010 ng·h/mL
half-life (po, 20 mg, Table 1A, Patient 115-002-002 (Patient 2), Day 15, 20 mg oral daily, read-out: Half-life (converted)): ~10 h
Tmax (po, 20 mg, Table 1A, Patient 115-002-002 (Patient 2), Day 15, 20 mg oral daily, read-out: Tmax): 2 h
AUC(0-inf) [7]: 1880 ng·h/mL
Cmax [7]: 304 ng/mL
AUC(0-t) (po, 20 mg, Table 1A, Patient 115-002-004 (Patient 3), Day 1, 20 mg oral daily, read-out: AUClast or AUCtau): 1780 ng·h/mL
half-life (po, 20 mg, Table 1A, Patient 115-002-004 (Patient 3), Day 1, 20 mg oral daily, read-out: Half-life (converted)): 5.61 h
Tmax (po, 20 mg, Table 1A, Patient 115-002-004 (Patient 3), Day 1, 20 mg oral daily, read-out: Tmax): 2 h
AUC(0-inf) [8]: 2150 ng·h/mL
Cmax [8]: 295 ng/mL
AUC(0-t) (po, 20 mg, Table 1A, Patient 115-002-004 (Patient 3), Day 15, 20 mg oral daily, read-out: AUClast or AUCtau): 1910 ng·h/mL
